Laboratory results from patent US8932986B2, “Herbicidal composition” (Sumitomo Chemical Company, Limited, priority 2012, dated 2015).

Assays:
Digitaria ciliaris [1] = experiment: Herbicidal activity, soil spray on day of sowing, pot test in greenhouse, evaluated after seven days (Example 2); assay type: in vivo; conditions: 20 g/ha; sprayed on day of sowing; seven days after spray treatment; scale 0 to 100
Method: (§1) Digitaria ciliaris was sowed on a plastic pot filled with a soil. Following the sowing, on the day of the sowing, a mixed liquid of flumioxazin, pyrasulfotole, and mefenpyr-diethyl was sprayed uniformly so that the amounts of the agents might become those shown in Table 2 in a sprayed water amount of 500 L/ha. The mixed liquid of flumioxazin, pyrasulfotole, and mefenpyr-diethyl was prepared by dissolving the respective compounds in prescribed amounts separately in acetone containing 2% (w/v) of Tween 20 (surfactant, produced by Tokyo Chemical Industry Co., Ltd.), diluting the respective solutions with water and then combining them, followed by dilution with water so that the final acetone concentration of the spray liquid might be 10% by volume. After the spray treatment, the pot was carried into a greenhouse. Seven days after the spray treatment, the herbicidal activity to Digitaria ciliaris was evaluated.

Digitaria ciliaris [2] = experiment: Herbicidal activity, soil spray on day of sowing, pot test in greenhouse, evaluated after ten days (Example 3); assay type: in vivo; conditions: 2 g/ha; sprayed on day of sowing; ten days after spray treatment; scale 0 to 100
Method: as §1, with “those as” for “those”, “Table 3” for “Table 2”, “greenhouse. Ten” for “greenhouse. Seven”

In the case of C#CCN1C(=O)COc2cc(F)c(N3C(=O)C4=C(CCCC4)C3=O)cc21 [Flumioxazin], the “Herbicidal activity Digitaria ciliaris” value (Digitaria ciliaris [1]) is reported as 10 and the “Herbicidal activity Digitaria ciliaris” value (Digitaria ciliaris [2]) is reported as 40.
